Measured values from patent EP0562731A1, “Substituted pyridinesulfonamide compounds or their salts, process for preparing the same, and herbicides containing the same” (ISHIHARA SANGYO KAISHA, Ltd., priority 1992, dated 1993).

What was measured:
Assay type in all cases: in vivo
[1] = test system: velvet leaf (Abutilon theophrasti); assay: Test Example 2: foliar application pot test, visual herbicidal effect rating, single and combined herbicides; settings: velvet leaf 1.2-leaf stage, 25 days after foliar application; also: ranges in brackets are in %
Excerpt: 1/10000-are pot was filled with upland farming soil and sown with velvet leaf (Abutilon theophrasti). When the plant reached the 1.2-leaf stage, a predetermined amount of the herbicide of the present invention diluted with 5 ℓ of water per are and admixed with 0.1 vol%, based on the aqueous solution, of an agricultural spreader ("Kusa Rino", produced by Nihon Nohyaku Co., Ltd.) was foliarly applied to the plant with a small spray gun. The herbicidal effect was visually observed 25 days after the foliar application and evaluated according to the rating system shown below.

[2] = test system: barnyard grass (Echinochloa crus-galli); assay: Test Example 1: foliar application pot test, visual growth control rating; set-up: key: 1: the same as in an untreated plot; 10: perfect growth control; settings: 1.25 g/a active ingredient, wettable powder, observed 20 to 31 days after application
Excerpt: (§1) 1/1,500 are [are (a) = 100 m²] pots were filled with upland farming soil, which in the pots was then sown with a variety of plants. The plants grown will be enumerated below.
(§2) When each plant reached a given growth stage (a 1.2- to 3.0-leaf stage for rice, primary leaf to a 0.7-leaf stage for soybean, 2.1- to 3.6-leaf stage for corn, cotyledon to 0.7-leaf stage for cotton, 2.0- to 3.0-leaf stage for wheat, 0.3- to 3.4-leaf stage for cocklebur, 0.3- to 1.6-leaf stage for morning glory, 0.1- to 1.3-leaf stage for prickly sida, 0.1- to 1.3-leaf stage for slender amaranth, 1.5- to 3.2-leaf stage for barnyard glass, and 1.2- to 3.0-leaf stage for large crabgrass), a predetermined amount of the herbicide of the present invention in the form of a wettable powder, weighed out, diluted with 5 ℓ/a of water and admixed with 0.2 or 0.1 vol%, based on the resulting composition, of an agricultural spreader, was foliarly applied to the plant with a small spray gun. The progress of growth of the plant was visually observed 20 to 31 days after the foliar application to evaluate the degree of growth control according to 10 ratings (1: the same as in an untreated plot - 10: perfect growth control).

[3] = test system: cocklebur (Xanthium strumarium); assay: as above; set-up: key: 1: the same as in an untreated plot; 10: perfect growth control; settings: 1.25 g/a active ingredient, wettable powder, observed 20 to 31 days after application
Excerpt: as §1, §2

corn (Zea mays) = assay: as above; set-up: key: 1: the same as in an untreated plot; 10: perfect growth control; settings: 1.25 g/a active ingredient, wettable powder, observed 20 to 31 days after application
Excerpt: as §1, §2

[4] = test system: large crabgrass (Digitaria adscendens); assay: as above; set-up: key: 1: the same as in an untreated plot; 10: perfect growth control; settings: 1.25 g/a active ingredient, wettable powder, observed 20 to 31 days after application
Excerpt: as §1, §2

[5] = test system: morning glory (Ipomoea purpurea); assay: as above; set-up: key: 1: the same as in an untreated plot; 10: perfect growth control; settings: 1.25 g/a active ingredient, wettable powder, observed 20 to 31 days after application
Excerpt: as §1, §2

[6] = test system: prickly sida (Sida spinosa); assay: as above; set-up: key: 1: the same as in an untreated plot; 10: perfect growth control; settings: 1.25 g/a active ingredient, wettable powder, observed 20 to 31 days after application
Excerpt: as §1, §2

rice (Oryza sativa) = assay: as above; set-up: key: 1: the same as in an untreated plot; 10: perfect growth control; settings: 1.25 g/a active ingredient, wettable powder, observed 20 to 31 days after application
Excerpt: as §1, §2

[7] = test system: slender amaranth (Amaranthus viridis); assay: as above; set-up: key: 1: the same as in an untreated plot; 10: perfect growth control; settings: 1.25 g/a active ingredient, wettable powder, observed 20 to 31 days after application
Excerpt: as §1, §2

soybean (Glycine max) = assay: as above; set-up: key: 1: the same as in an untreated plot; 10: perfect growth control; settings: 1.25 g/a active ingredient, wettable powder, observed 20 to 31 days after application
Excerpt: as §1, §2

wheat (Triticum) = assay: as above; set-up: key: 1: the same as in an untreated plot; 10: perfect growth control; settings: 1.25 g/a active ingredient, wettable powder, observed 20 to 31 days after application
Excerpt: as §1, §2

Row | SMILES | Rating ([1]; 0.02 g/a) | Rating ([1]; 0.04 g/a) | Rating ([1]; 0.08 g/a) | Rating ([1]; 0.25 g/a) | Rating ([1]; 0.5 g/a) | Rating ([1]; 1.00 g/a) | degree of growth control, EC [2] | degree of growth control, XA [3] | degree of growth control, ZE (corn (Zea mays)) | degree of growth control, DI [4] | degree of growth control, IP [5] | degree of growth control, SI [6] | degree of growth control, OR (rice (Oryza sativa)) | degree of growth control, AM [7] | degree of growth control, GL (soybean (Glycine max)) | degree of growth control, TR (wheat (Triticum))
1 | CCOC(=O)c1ccccc1S(=O)(=O)NC(=O)Nc1nc(Cl)cc(OC)n1 [Chlorimuron-ethyl, ethyl 2-[[[[(4-chloro-6-methoxy-2-pyrimidinyl)amino]carbonyl]amino]sulfonyl]benzoate] | 6 (60-69) | 8 (80-89) | 9 (90-99) | – | – | – | – | – | – | – | – | – | – | – | – | –
2 | CS(=O)(=O)NC(=O)c1cc(Oc2ccc(C(F)(F)F)cc2Cl)ccc1[N+](=O)[O-] [Fomesafen, 5-[2-chloro-4-(trifluoromethyl)phenoxy]-N-(methylsulfonyl)-2-nitrobenzamide] | – | – | – | 3 (30-39) | 7 (70-79) | 7 (70-79) | – | – | – | – | – | – | – | – | – | –
3 | CCCCS(=O)(=O)N(CCC)c1cccc(S(=O)(=O)NC(=O)Nc2nc(C)nc(OC)n2)n1 [compound 42] | – | – | – | – | – | – | 3 | 6 | 3 | 5 | 4 | 3 | 6 | 10 | 4 | 4
4 | CCCCN(c1cccc(S(=O)(=O)NC(=O)Nc2nc(C)nc(OC)n2)n1)S(=O)(=O)CCCC [compound 43] | – | – | – | – | – | – | 3 | 6 | 3 | 6 | 3 | 3 | 2 | 5 | 4 | 3
5 | CCN(c1cccc(S(=O)(=O)NC(=O)Nc2nc(C)nc(OC)n2)n1)S(=O)(=O)CCl [compound 60] | – | – | – | – | – | – | 6 | 9 | 5 | 4 | 7 | 5 | 6 | 9 | 4 | 2
6 | CCCCS(=O)(=O)N(CC(C)C)c1cccc(S(=O)(=O)NC(=O)Nc2nc(C)nc(OC)n2)n1 [compound 82] | – | – | – | – | – | – | 4 | 9 | 8 | 3 | 6 | 1 | 4 | 7 | 3 | 4
7 | CCN(c1cccc(S(=O)(=O)NC(=O)Nc2nc(OC)nc(OC)n2)n1)S(=O)(=O)CC(F)(F)F [compound 92] | – | – | – | – | – | – | 6 | 10 | 7 | 3 | 10 | 6 | 5 | 5 | 7 | 9
